Data on 20 molecules can be found in patent US20040235866A1, “Lymphocytic activation inhibitor and remedial agent for autoimmune disease” (priority 2001, published 2004).

Series [1] has as its system spleen lymphocytes cultured with PLP139-151. The experiment in a line: Inhibition effect for lymphocyte activation (antigen-specific division, 3H-thymidine uptake). The class given is cell-based. The following applies: female SJL/J mouse spleen lymphocytes, PLP139-151 stimulation, 5 days culture, read-out: IC 50 (inhibition of antigen-specific division of the lymphocytes). An excerpt:
Immunizing a mounse with a partial peptide of a proteolipid protein (PLP), a central myelin protein, induces a chronic encephalomyelitis therein. Sampling lymphocytes from the spleen of the mouse and stimulating by an antigen in vitro allow the induction of antigen-specific activation and division of the lymphocyte. The effect of a drug to the reaction was examined to evaluate the inhibition effect of the drug for lymphocyte activation. Specifically, a female SJL/J mouse was immunized with an adjuvant containing a PLP partial peptide (PLP139-151) under ether anesthesia. On the day of immunization and 2 days thereafter, deactivated Bordetella pertussis (one billion/mouse) was intravenously administered. On 7th or 8th day after the immunization, the mouse was killed by ether anesthesia and then the spleen thereof was extracted to isolate spleen lymphocytes. […] The compound numbers are the same as those described in the previous list (hereinafter, the same).

In the next series the test system is mice. Kind of series: Successive 15-day administration to mice (toxicity observation). In kind it is in vivo. The following applies: 100 mg/kg and 200 mg/kg successively for 15 days. An excerpt: It is thus considered that the compound represented by the general formula (I) has low toxicity.
For series [2], the system named is experimental encephalomyelitis model (PLP peptide p139-151 immunized mouse). Kind of series: Effect in an experimental encephalomyelitis model. The following applies: female SJL/J mouse, 200 mg/kg orally from 5th day to 12th day after initial sensitization, FIG. 2. In kind it is in vivo. The procedure:
100 μl of a Freund's complete adjuvant (Difco, containing 0.6 mg/ml of M. tuberculosis H37Ra) containing the PLP peptide (p139-151, Toray Research Center) was subcutaneously injected to a female SJL/J mouse in the back thereof under ether anesthesia for immunization (initial sensitization). Two days after, deactivated Bordetella pertussis was intravenously injected in an amount of about one billion per mouse. Seven days after, immunization was conducted again with the antigen. Over several weeks thereafter, abnormalities in limbs, a tail, and righting reflexes were graded into scored levels and recorded. The subjective compound was orally administered in an amount of 200 mg/kg from 5th day to 12th day after the initial sensitization. In experiments, 12 mice were used for each of a control group and a drug-administered group.
Note that, the experimental encephalomyelitis model described above is a model in which a lymphocyte activated by reacting with an immunized PLP peptide causes an immunoreaction to induce encephalomyelitis, and is widely recognized as a model for evaluating a pharmacological effect of a compound having a lymphocyte activation inhibition effect (e.g., Agents and Actions, 27, 351-355 (1989); and Agents and Actions, 35, 79-84 (1992)).

Series [3] deals with mouse collagen-induced arthritis. Kind of series: Effect on mouse collagen-induced arthritis. The class given is in vivo. Conditions: DBA/1JN male mouse, FIG. 1. On the procedure:
A DBA/1JN male mouse (7 weeks of age) was sensitized by intracutaneously injecting in the tail part thereof with 0.1 ml of an emulsion solution obtained by mixing a 0.3% bovine-derived type II collagen solution with the same amount of a Freund's complete adjuvant. After 3 weeks after initial sensitization, a booster was conducted in a similar way to cause arthritis. The subjective compound was made into a solution (5 mg/ml) according to a general method, and the day of the booster and 3 days thereafter, the solution was intravenously administered in an amount of 10 ml/kg (50 mg/kg). In experiments, 8 mice were used for each of a control group and a drug-administered group. The condition of arthritis was evaluated macroscopically on limbs and graded into 5 score levels (0; normal, 1; flare on a finger joint, 2; slight edema on an entire leg, 3; edema on an entire leg, and 4; severe edema on an entire leg), to be shown as a total sum. […] The effect lasted even after the second administration and the inhibition effect was recognized even 36 days after the initial sensitization, i.e., 12 days after administration (FIG. 1). […]

Molecules are shown by their SMILES. Where two headings read alike, the source gives them in different places.

`CS(=O)(=O)Nc1ccc(S(=O)(=O)Nc2cccc3c(Cl)c[nH]c23)cc1` [Compound 4, N-(3-Chloro-1H-indol-7-yl)-4-(methanesulfonamido)-benzenesulfonamide]: the IC50 in series [1] (Mus musculus, Lymphocyte) came to 1430 nM.

Take `CNC(=O)c1ccc(S(=O)(=O)Nc2cccc3c(Cl)c[nH]c23)cc1` [Compound 72, N-(3-Chloro-1H-indol-7-yl)-4-(N-methylcarbamoyl)-benzenesulfonamide]: the IC50 in series [1] (Mus musculus, Lymphocyte) is 1810 nM.

In the case of `CC(=O)N(C)c1ccc(S(=O)(=O)Nc2cccc3c(Cl)c[nH]c23)cc1` [Compound 79, N-(3-Chloro-1H-indol-7-yl)-4-(N-methylacetamido)-benzenesulfonamide], in series [1] (Mus musculus, Lymphocyte), the IC50 was 360 nM.

`Nc1ccc(S(=O)(=O)Nc2cccc3c(Cl)c[nH]c23)cc1` [Compound 3, 4-Amino-N-(3-chloro-1H-indol-7-yl)benzenesulfonamide]: the IC50 in series [1] (Mus musculus, Lymphocyte) amounted to 2270 nM.

As for `NS(=O)(=O)CCc1ccc(S(=O)(=O)Nc2cccc3c(Cl)c[nH]c23)cc1` [Compound 35, N-(3-Chloro-1H-indol-7-yl)-4-(2-sulfamoylethyl)-benzenesulfonamide], the IC50 in series [1] (Mus musculus, Lymphocyte) was found to be 670 nM.

As for `CS(=O)(=O)CCc1ccc(S(=O)(=O)Nc2cccc3c(Cl)c[nH]c23)cc1` [Compound 36, N-(3-Chloro-1H-indol-7-yl)-4-[2-(methylsulfonyl)ethyl]-benzenesulfonamide], the IC50 in series [1] (Mus musculus, Lymphocyte) was determined as 780 nM.

`CS(=O)(=O)NCc1ccc(S(=O)(=O)Nc2cccc3c(Cl)c[nH]c23)cc1` [Compound 53, N-(3-Chloro-1H-indol-7-yl)-4-[(methanesulfonamido)methyl]-benzenesulfonamide]: in series [1] (Mus musculus, Lymphocyte), the IC50 amounted to 740 nM.

For the molecule `N#Cc1cccc(S(=O)(=O)Nc2cccc3c(C#N)c[nH]c23)c1` [Compound 51, 3-Cyano-N-(3-cyano-1H-indol-7-yl)benzenesulfonamide], in series [1] (Mus musculus, Lymphocyte), the IC50 was determined as 620 nM. Further, in the series on mice, the Body weight entry was “dose-dependent weight increases” and the Toxicity observation entry is “no observation showing toxicity”.

Take `NC(=O)c1ccc(S(=O)(=O)Nc2cccc3c(Cl)c[nH]c23)cc1` [Compound 29, 4-Carbamoyl-N-(3-chloro-1H-indol-7-yl)benzenesulfonamide]: in series [1] (Mus musculus, Lymphocyte), the IC50 was 2020 nM.

Consider `N#Cc1ccc(S(=O)(=O)Nc2cccc3c(Cl)c[nH]c23)cc1` [Compound 28, 4-Cyano-N-(3-chloro-1H-indol-7-yl)benzenesulfonamide], for which, in series [1], the IC50 came out at 2860 nM.

On to `Nc1ccncc1S(=O)(=O)Nc1cccc2c(Cl)c[nH]c12` [Compound 33, 4-Amino-N-(3-chloro-1H-indol-7-yl)-3-pyridinesulfonamide], for which the IC50 in series [1] (Mus musculus, Lymphocyte) amounted to 470 nM.

Take `N#Cc1c[nH]c2c(NS(=O)(=O)c3ccc(N)nc3)cccc12` [Compound 37, 6-Amino-N-(3-cyano-1H-indol-7-yl)-3-pyridinesulfonamide]: the IC50 in series [1] (Mus musculus, Lymphocyte) stood at 640 nM.

`Cc1ccc(NS(=O)(=O)c2cccc(C#N)c2)c2[nH]cc(C#N)c12` [Compound 94, 3-Cyano-N-(3-cyano-4-methyl-1H-indol-7-yl)-benzenesulfonamide]: the IC50 in series [1] (Mus musculus, Lymphocyte) turned out to be 250 nM. Also, in the series on mice, the Body weight result is listed as “dose-dependent weight increases” and the Toxicity observation entry is “no observation showing toxicity”.

With `CCS(=O)(=O)Nc1ccc(S(=O)(=O)Nc2cccc3c(Cl)c[nH]c23)cc1` [Compound 70, N-(3-Chloro-1H-indol-7-yl)-4-(ethanesulfonamido)-benzenesulfonamide], the IC50 in series [1] (Mus musculus, Lymphocyte) amounted to 1400 nM.

In the case of `CS(=O)(=O)NCCc1ccc(S(=O)(=O)Nc2cccc3c(Cl)c[nH]c23)cc1` [Compound 62, N-(3-Chloro-1H-indol-7-yl)-4-[2-(methanesulfonamido)ethyl]-benzensulfonamide], the IC50 in series [1] (Mus musculus, Lymphocyte) stood at 580 nM.

For the molecule `N#Cc1c[nH]c2c(NS(=O)(=O)c3cccc(Cl)c3)cccc12` [Compound 17, 3-Chloro-N-(3-cyano-1H-indol-7-yl)benzenesulfonamide], in series [1] (Mus musculus, Lymphocyte), the IC50 amounted to 440 nM. In addition, in series [2], the “Onset of abnormality (limbs, tail, righting reflexes score)” value was “delayed expression of abnormality” and the “Severity of abnormality (limbs, tail, righting reflexes score)” value is “alleviated the severity”. Also, in the series with mice, the Body weight entry is listed as “dose-dependent weight increases” and the Toxicity observation result was “no observation showing toxicity”.

Take `CCNS(=O)(=O)c1ccc(S(=O)(=O)Nc2cccc3c(Cl)c[nH]c23)cc1` [Compound 69, N-(3-Chloro-1H-indol-7-yl)-4-(N-ethylsulfamoyl)-benzenesulfonamide]: the IC50 in series [1] (Mus musculus, Lymphocyte) turned out to be 590 nM.

Turning to `NS(=O)(=O)Cc1ccc(S(=O)(=O)Nc2ccc(Cl)c3c(Cl)c[nH]c23)cc1` [Compound 77, N-(3,4-Dichloro-1H-indol-7-yl)-4-(sulfamoylmethyl)-benzenesulfonamide], the IC50 in series [1] (Mus musculus, Lymphocyte) came out at 980 nM.

On to `N#Cc1ccc(S(=O)(=O)Nc2cccc3c(Cl)c[nH]c23)cc1` [Compound 10, N-(3-Chloro-1H-indol-7-yl)-4-cyanobenzenesulfonamide], for which the IC50 in series [1] is 590 nM. In series [2], the “Onset of abnormality (limbs, tail, righting reflexes score)” value is “delayed expression of abnormality” and the “Severity of abnormality (limbs, tail, righting reflexes score)” value was “alleviated the severity”. In the series with mice, the Body weight entry was “dose-dependent weight increases” and the Toxicity observation result is given as “no observation showing toxicity”.

As for `NS(=O)(=O)c1ccc(S(=O)(=O)Nc2cccc3c(Cl)c[nH]c23)cc1` [Compound 19, N-(3-Chloro-1H-indol-7-yl)-4-sulfamoylbenzenesulfonamide], the IC50 in series [1] (Mus musculus, Lymphocyte) amounted to 1830 nM. Besides, in series [3] (50 mg/kg intravenously on the day of the booster and 3 days thereafter), the “Effect on crisis and development of arthritis (arthritis score, total sum)” value is “obvious inhibition effect for the crisis and development of arthritis”. Further, in series [3] (50 mg/kg intravenously, i.e. 12 days after administration), the “Duration of the inhibition effect on arthritis, days after the initial sensitization” value is at least 36 days.
